In brackets after ≈: the same amount, converted by molar mass.
Experiments:
Format in all cases: cell-based
[1] = test system: S. pneumoniae MSC07571; assay: MIC against S. pneumoniae MSC07571 (CLSI M7-A7 agar method); settings: Sensitivity disk agar-N+5% horse aseptic defibranated blood, about 10^4 CFU/ml; for MIC: Streptococcus pneumoniae, read-out: minimal inhibitory concentration (MIC)
Protocol: (§1) For representative compounds among lincomycin derivatives according to the present invention, the minimal inhibitory concentration (MIC, […]) against various pneumococci was measured according to the method described in Clinical and Laboratory Standards Institute, M7-A7, 2006. Sensitivity disk agar-N+5% horse aseptic defibranated blood was used as the medium for the measurement. The amount of bacteria inoculated was about 10^4 CFU/ml.

[2] = test system: S. pneumoniae MSC07365; assay: MIC against S. pneumoniae MSC07365 (CLSI M7-A7 agar method); design: unit not given here; settings: Sensitivity disk agar-N+5% horse aseptic defibranated blood, about 10^4 CFU/ml
Protocol: as §1

[3] = test system: S. pneumoniae MSC10197; assay: MIC against S. pneumoniae MSC10197 (CLSI M7-A7 agar method); design: unit not given here; settings: Sensitivity disk agar-N+5% horse aseptic defibranated blood, about 10^4 CFU/ml
Protocol: as §1

[4] = test system: S. pneumoniae MSC07465; assay: MIC against S. pneumoniae MSC07465 (CLSI M7-A7 agar method); design: unit not given here; settings: Sensitivity disk agar-N+5% horse aseptic defibranated blood, about 10^4 CFU/ml
Protocol: as §1

[5] = test system: S. pneumoniae MSC07471; assay: MIC against S. pneumoniae MSC07471 (CLSI M7-A7 agar method); design: unit not given here; settings: Sensitivity disk agar-N+5% horse aseptic defibranated blood, about 10^4 CFU/ml
Protocol: as §1

[6] = test system: S. pneumoniae MSC17994; assay: MIC against S. pneumoniae MSC17994 (CLSI M7-A7 agar method); design: unit not given here; settings: Sensitivity disk agar-N+5% horse aseptic defibranated blood, about 10^4 CFU/ml
Protocol: as §1

[7] = test system: S. pneumoniae MSC07337; assay: MIC against S. pneumoniae MSC07337 (CLSI M7-A7 agar method); design: unit not given here; settings: Sensitivity disk agar-N+5% horse aseptic defibranated blood, about 10^4 CFU/ml
Protocol: as §1

Compound | MIC [1] [µg/mL] | minimal inhibitory concentration (MIC) [1] [µg/mL] | minimal inhibitory concentration (MIC) [2] | minimal inhibitory concentration (MIC) [3] | minimal inhibitory concentration (MIC) [4] | minimal inhibitory concentration (MIC) [5] | minimal inhibitory concentration (MIC) [6] | minimal inhibitory concentration (MIC) [7]
CCC[C@@H]1C[C@@H](C(=O)NC(C2OC(SC)C(O)C(O)C2O)[C@H](C)Sc2ccc(CCN(C)C)cc2)N(C)C1 (stereo partly shown) [Compound 1, 7-Deoxy-7-(4-(2-(dimethylamino)ethyl)phenylthio)-7-epilincomycin] | 15 (≈ 26.3 µM) |  |  |  |  |  |  | 
CCC[C@@H]1C[C@@H](C(=O)NC(C2OC(SC)C(O)C(O)C2O)[C@H](C)Sc2ccc(CCN(C)CCN(C)C)cc2)N(C)C1 (stereo partly shown) [Compound 10, 7-Deoxy-7-(4-(2-((2-(dimethylamino)ethyl)-(methyl)amino)ethyl)-phenylthio)-7-epilincomycin] | 60 (≈ 95.7 µM) |  |  |  |  |  |  | 
CSC1OC(C(NC(=O)[C@@H]2C[C@H](CC3CC3)CCN2C)C(C)Sc2ccc(CCN(C)C)nc2)C(O)C(O)C1O (stereo partly drawn) [Compound 52, Methyl 6-N-((2S,4R)-(4-cyclopropylmethyl-1-methyl)piperidine-2-carbonyl)-7-deoxy-7-(6-(2-(dimethylamino)ethyl)-pyridin-3-ylthio)-7-epi-1-thio-α-lincosamide] |  | 250 (≈ 419 µM) | 64 | 0.25 | 0.25 | 32 | 0.25 | 32
CSC1OC(C(NC(=O)[C@@H]2C[C@H](CC3CC3)CCN2C)C(C)Sc2ccc(CCN(C)C3CC3)cc2)C(O)C(O)C1O (stereo partly drawn) [Compound 54, Methyl 7-(4-(2-(cyclopropyl(methyl)-amino)ethyl)phenyl-thio)-6-N-((2S,4R)-4-(cyclopropylmethyl)-1-methylpiperidine-2-carbonyl)-7-deoxy-7-epi-1-thio-α-lincosamide] |  | 30 (≈ 48.2 µM) | 4 | 0.03 | 0.015 | 2 | 0.06 | 2
